Key:
[1] = system: self-administration of ethanol; experiment: Operant self-administration of ethanol (lever presses for 10% ethanol cocktail); format: in vivo, Male Wistar rats; conditions: for Percent Change from Non-Drug Baseline: Repeated Dosing: Day 1 / Percent Change from Non-Drug Baseline: Repeated Dosing: Day 5 / Percent Change from Non-Drug Baseline: Single Dosing: lever presses for ethanol, naltrexone ED75 SC; for Percent Change from Non-Drug Baseline: Repeated Dosing: Day 1 / Percent Change from Non-Drug Baseline: Repeated Dosing: Day 5: once a day for 5 days; for effect on number of lever presses for ethanol over the dose range: naltrexone 0-6 mg/kg SC, 30 min before session; for Lever Presses (Mean ± SEM): 30 min session; for decrease in number of lever presses for ethanol compared to non-drug treated (baseline): naltrexone ED75 0.05-0.075 mg/kg SC alone
Protocol: Male Wistar rats (initial weight of 200±30 grams; Charles River Laboratories, MA) were individually housed with free access to food and water. The vivarium was maintained on a 12 hour light/dark cycle with a room temperature of 22±3° C.
Animals were trained daily in an operant chamber to press a lever to receive access to an ethanol cocktail as a reinforcer using a saccharin fading procedure. […] The final ethanol cocktail contained 10% ethanol in 0.04% saccharine. Each session lasted 30 minutes, during which the rat could press the lever twice to gain access to 0.1 mL of the ethanol cocktail. The operant chamber (Coulboume Instruments, Allentown, Pa.) is a computer-controlled automated system which recorded the number of lever presses completed by a rat. At the end of the training period (6-8 weeks), rats which consistently drank a minimum intake of 0.6 g/kg/hour of EtOH (approximately 60 bar presses) were selected to participate in the drug studies. These trained rats were used repeatedly throughout these studies to control for intra-subject variability. Assessments of drug effects were made following a single dosing, with a minimum of a 2 day drug washout period between arms of studies.
The ability of naltrexone to reduce ethanol drinking (i.e., decrease the number of lever presses) was assessed in this animal model of self administration of ethanol. […] The total number of lever presses was recorded over the 30 minute test session. […] In addition, oral activity was also assessed. […] The animals were tested in the operant chambers one hour later and the number of lever presses for ethanol was recorded for the 30 minute session.
This dose allows one to determine if the co-administered drugs impaired or enhanced naltrexone's effect on ethanol drinking. The drugs were administered orally 30 minutes prior to a naltrexone injection (SC), and 60 minutes prior to the beginning of the ethanol drinking test session. The number of lever presses for the ethanol cocktail was recorded at the end of the 30 minute session.
(§1) Repeated Dosing. The previous studies were conducted using a single dosing procedure. To determine if this drug interaction might be further enhanced with repeated daily dosing or conversely, the effect on decreasing alcohol self-administration is lost (due to tolerance) following multiple daily dosing, the study was repeated with a once-a-day for 5 days dosing procedure. […] Animals were tested on Day 1 and on Day 5.
as §1, with “study was” for “studies were”, “repeated” for “repeated daily”

[2] = system: morphine-induced analgesia; experiment: Hotplate test: inhibition of morphine-induced analgesia; format: in vivo, Male Wistar rats; conditions: 5 consecutive days SC dosing; first vs last day response latencies
[3] = Pharmacokinetic profile of opioid antagonists after IV, PO and SC administration; conditions: rat; for AUC(0-inf) / bioavailability: male, Sprague Dawley, in vivo
Protocol: Blood samples were collected for 6 hours post-dose. Concentrations of each parent drug were determined by LC/MS-MS. Pharmacokinetic parameters were determined by noncompartmental analysis.

In the case of NC[C@H](CC(=O)O)c1ccc(Cl)cc1 [Baclofen, R(+)-Baclofen], the “lever pressing for ethanol compared to non-drug treated conditions” value ([1]; baclofen 3.0 mg/kg alone, p<0.01) is reported as “significantly decreased the self-administration of ethanol”, the “Percent Change from Non-Drug Baseline: Repeated Dosing: Day 1” value ([1]; baclofen 0.3 mg/kg PO) is reported as −35% and the “Percent Change from Non-Drug Baseline: Repeated Dosing: Day 5” value ([1]; baclofen 0.3 mg/kg PO) is reported as −30%.

In the case of Cc1c(C(=O)NN2CCCCC2)nn(-c2ccc(Cl)cc2Cl)c1-c1ccc(I)cc1 [AM-251], the “lever pressing for ethanol compared to non-drug treated conditions” value ([1]; AM-251 3.0 mg/kg alone) is reported as “no effect”, the “Percent Change from Non-Drug Baseline: Repeated Dosing: Day 1” value ([1]; AM-251 1 mg/kg PO) is reported as −2% and the “Percent Change from Non-Drug Baseline: Repeated Dosing: Day 5” value ([1]; AM-251 1 mg/kg PO) is reported as “+19%”.

In the case of O=C1CC[C@@]2(O)[C@H]3Cc4ccc(O)c5c4[C@@]2(CCN3CC2CC2)[C@H]1O5 [Naltrexone], the “development of tolerance in blocking morphine-induced analgesia” value [2] is reported as “no development of tolerance”, the AUC(0-inf) ([3]; po, 10 mg/kg) is reported as 150 ng·h/mL and the bioavailability ([3]; po, 10 mg/kg) is reported as 3%. The AUC(0-inf) ([3]; sc, 0.1 mg/kg) was 14.4 ng·h/mL, the bioavailability ([3]; sc, 0.1 mg/kg) was 31% and the absorption ([3]; PO or SC) was “rapidly absorbed”. For the same compound, the “effect on decreasing self-administration of ethanol” value ([1]; 0.5 mg/kg SC, 30 minutes prior to testing) was “equivalent effects”, the “effect on decreasing self-administration of ethanol (oral activity)” value ([1]; 10 mg/kg oral gavage, tested one hour later) was “only RDC-0313-01 was active” and the “ED75 (dose of naltrexone that produced a 25% decrease in lever responses for ethanol)” value ([1]; SC, titrated for each individual animal) was 0.05 to 0.075 mg/kg. The “Percent Change from Non-Drug Baseline: Repeated Dosing: Day 1” value ([1]; AM-251 1 mg/kg PO) was −24%, the “Percent Change from Non-Drug Baseline: Repeated Dosing: Day 5” value ([1]; AM-251 1 mg/kg PO) was −19% and the “Percent Change from Non-Drug Baseline: Single Dosing” value ([1]; AM-251 PO) was −33%. The “Percent Change from Non-Drug Baseline: Repeated Dosing: Day 1” value ([1]; baclofen 0.3 mg/kg PO) was −43%, the “Percent Change from Non-Drug Baseline: Repeated Dosing: Day 5” value ([1]; baclofen 0.3 mg/kg PO) was −57% and the “Percent Change from Non-Drug Baseline: Single Dosing” value ([1]; baclofen PO) was −18%. For the same compound, the “decrease in lever presses versus baseline and vehicle control” value ([1]; lowest dose of naltrexone tested, 0.05 mg/kg) was “no significant decrease”, the “effect on number of lever presses for ethanol over the dose range” value [1] was “Suppresses the Self-Administration of Ethanol in a Dose-Dependent Manner” and the “effect on number of lever presses for ethanol over the dose range” value ([1]; listed as naltrexone) was “dose-dependent decrease in the number of lever presses”. The “Approximate Absolute Ethanol Consumed” value ([1]; naltrexone 0.05 mg/kg SC) was 1.0 g/kg, the “Lever Presses (Mean ± SEM)” value ([1]; naltrexone 0.05 mg/kg SC) was 132 ± 13.3 and the “Approximate Absolute Ethanol Consumed” value ([1]; naltrexone 0.1 mg/kg SC) was 0.7 g/kg. The “Lever Presses (Mean ± SEM)” value ([1]; naltrexone 0.1 mg/kg SC) was 88 ± 8.6, the “Approximate Absolute Ethanol Consumed” value ([1]; naltrexone 0.5 mg/kg SC) was 0.6 g/kg and the “Lever Presses (Mean ± SEM)” value ([1]; naltrexone 0.5 mg/kg SC) was 83 ± 12.1. The “Approximate Absolute Ethanol Consumed” value ([1]; naltrexone 1.0 mg/kg SC) was 0.3 g/kg, the “Lever Presses (Mean ± SEM)” value ([1]; naltrexone 1.0 mg/kg SC) was 43 ± 8.6 and the “Approximate Absolute Ethanol Consumed” value ([1]; naltrexone 3.0 mg/kg SC) was 0.2 g/kg. The “Lever Presses (Mean ± SEM)” value ([1]; naltrexone 3.0 mg/kg SC) was 24 ± 8.1, the “Approximate Absolute Ethanol Consumed” value ([1]; naltrexone 6.0 mg/kg SC) was 0.2 g/kg and the “Lever Presses (Mean ± SEM)” value ([1]; naltrexone 6.0 mg/kg SC) was 21 ± 5.5. For the same compound, the “effect on decreasing ethanol drinking at the higher doses” value ([1]; naltrexone 3 and 6 mg/kg) was “appeared to plateau”, the “decrease in number of lever presses for ethanol compared to non-drug treated (baseline)” value ([1]; AM-251 acute dosing study) was 32.5% and the “decrease in number of lever presses for ethanol compared to non-drug treated (baseline)” value ([1]; baclofen single dosing study) was 18%.

— patent US20070099947A1, “Methods and compositions for the treatment of brain reward system disorders by combination therapy” (Alkermes, Inc., priority 2005, published 2007)
